Like-named read-outs stand apart in the source and are kept apart here.
How the values were obtained:
Staphylococcus aureus = settings: for MIC (MEC): radial diffusion, MHB/1% agarose, overnight, 37°C
Method: (§1) The MEC of HBD-3 was assayed on a sub-selection of strains using a radial diffusion assay with some modifications. In brief, MHB/1% agarose was supplemented with glucose to an end-concentration of 0.1% (w/V) to enhance the growth of L. monocytogenes and improve the visualization of the inhibition zones. […] Following solidification on a leveling table, 1 mm wells were punched with a Pasteur pipette. Two-fold dilutions of HBD-3 were prepared in 0.01% acetic acid/0.1% bovine serum albumin to a concentration range of 0.25–256 μg/ml and 2 μl was added to each well. […] Each strain was tested in two independent trials.
(§2) The bacteria were prepared and mixed with MHB/1% agarose as described above and 50 ml gel was poured into 140 mm Petri dishes. The gel was allowed to solidify and 3 mm wells were punched. […] The plates were incubated overnight at 37°C and the MEC was read as described above.

Listeria monocytogenes = settings: for MIC (MEC): radial diffusion, MHB/1% agarose, overnight, 37°C
Method: as §1, §2

Which results are given for `OO` [hydrogen peroxide]?
MEC values against S. aureus (range over strains) (Staphylococcus aureus): 0.12–0.47 % (V/V); MIC (MEC) (Staphylococcus aureus; strain ΔdltA (Sa113 dltA ins)): 0.23 % (V/V); MIC (MEC) (Staphylococcus aureus; strain ΔmprF (Sa113 mprF del)): 0.12 % (V/V); MEC values against L. monocytogenes (range over strains) (Listeria monocytogenes; radial diffusion assay, all strains tested): 0.12–0.94 % (V/V); MIC (MEC) (Listeria monocytogenes; strain 2275 (EGD dps del)): 0.94 % (V/V); MIC (MEC) (Listeria monocytogenes; strain 2307 (EGD resD del)): 0.12 % (V/V); MIC (MEC) (Listeria monocytogenes; strain 2315 (EGD sigB del)): 0.94 % (V/V); MIC (MEC) (Listeria monocytogenes; strain 2317 (EGD prfA del)): 0.94 % (V/V); MIC (MEC) (Listeria monocytogenes; strain 2374 (EGD perR ins)): 0.94 % (V/V); MIC (MEC) (Listeria monocytogenes; strain 2375 (EGD perR del)): 0.94 % (V/V); MIC (MEC) (Listeria monocytogenes; strain 4239): 0.23 % (V/V); MIC (MEC) (Listeria monocytogenes; strain 4446): 0.47 % (V/V); MIC (MEC) (Listeria monocytogenes; strain 4459): 0.23 % (V/V); MIC (MEC) (Listeria monocytogenes; strain 4666): 0.18 % (V/V); MIC (MEC) (Listeria monocytogenes; strain 6895): 0.35 % (V/V); MIC (MEC) (Listeria monocytogenes; strain 7291): 0.47 % (V/V); MIC (MEC) (Listeria monocytogenes; strain 7418): 0.18 % (V/V); MIC (MEC) (Listeria monocytogenes; strain EGD (wildtype)): 0.47 % (V/V); MIC (MEC) (Listeria monocytogenes; strain H13-1): 0.94 % (V/V); MIC (MEC) (Listeria monocytogenes; strain LO28 (wildtype)): 0.47 % (V/V); MIC (MEC) (Listeria monocytogenes; strain La22): 0.23 % (V/V); MIC (MEC) (Listeria monocytogenes; strain La111): 0.94 % (V/V); MIC (MEC) (Listeria monocytogenes; strain M103-1): 0.94 % (V/V); MIC (MEC) (Listeria monocytogenes; strain N53-1): 0.47 % (V/V); MIC (MEC) (Listeria monocytogenes; strain No40-1): 0.47 % (V/V); MIC (MEC) (Listeria monocytogenes; strain O57): 0.47 % (V/V); MIC (MEC) (Listeria monocytogenes; strain R479a): 0.47 % (V/V); MIC (MEC) (Listeria monocytogenes; strain V518a): 0.94 % (V/V)
